According to publication PMC4111740, “Ligand-Based Pharmacophore Modeling and Virtual Screening for the Discovery of Novel 17β-Hydroxysteroid Dehydrogenase 2 Inhibitors” (Journal of Medicinal Chemistry, 2014):
Entries after “also recorded” stand apart in the source; their conditions may differ. Each block holds one compound with its values, some of them ahead of it.

Columns and labels:
17β-HSD2 = biological target: T1, 17β-HSD2 (Homo sapiens, UniProt P37059); test: 17β-HSD2 activity in intact transfected HEK-293 cells; assay type: cell-based; details: intact HEK-293 cells
T1 construct: expressed in transfected cells; host or cells: HEK-293 (transient, calcium phosphate), lysate
T1 sequence (P37059 1-387): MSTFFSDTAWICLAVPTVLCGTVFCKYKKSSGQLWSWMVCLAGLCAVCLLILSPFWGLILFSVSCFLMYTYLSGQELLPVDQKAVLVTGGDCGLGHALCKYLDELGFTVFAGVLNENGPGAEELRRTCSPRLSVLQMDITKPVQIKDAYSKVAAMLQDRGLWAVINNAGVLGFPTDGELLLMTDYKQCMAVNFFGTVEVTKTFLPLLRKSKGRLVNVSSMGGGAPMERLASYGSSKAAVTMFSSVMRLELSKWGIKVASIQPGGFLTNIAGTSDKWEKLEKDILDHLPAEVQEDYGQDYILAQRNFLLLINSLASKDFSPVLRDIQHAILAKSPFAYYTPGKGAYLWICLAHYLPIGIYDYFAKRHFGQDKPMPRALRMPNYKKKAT
Method: (§1) Human embryonic kidney cells (HEK-293) were cultivated in DMEM containing 4.5 g/L glucose, 10% fetal bovine serum, 100 U/mL penicillin, 0.1 mg/mL streptomycin, 1× MEM nonessential amino acids, and 10 mM HEPES buffer, pH 7.4. The cells were incubated at 37 °C until 80% confluency. The cells were transfected using the calcium phosphate method with expression plasmids for 17β-HSD2 and 17β-HSD3. After 24 h, the cells were trypsinized and seeded on poly-L-lysine-coated 96-well plates (15 000 cells/well).
(§2) The inhibitory activities were measured 24 h after seeding as follows: old medium was aspirated and replaced by 30 μL of charcoal-treated DMEM (cDMEM). Ten microliters of inhibitor dissolved in cDMEM into the respective concentration was added, and mixtures were preincubated at 37 °C for 20 min. 17β-HSD2 inhibitory activities were measured in the presence of 190 nM unlabeled estradiol and 10 nM radiolabeled estradiol. N-(3-Methoxyphenyl)-N-methyl-5-m-tolylthiophene-2-carboxamide (compound 19 in ref ([26])) was used as positive control. The reaction mixtures were incubated for 20 min, and the reactions were stopped by adding an excess of estradiol and estrone (1:1, 2 mM in methanol) to the mixture.

17β-HSD3 = biological target: T2, 17β-HSD3 (Homo sapiens, UniProt P37058); test: 17β-HSD3 activity in intact transfected HEK-293 cells; assay type: cell-based
T2 construct: expressed in transfected cells; host or cells: HEK-293 (transient, calcium phosphate), intact cells
T2 sequence (P37058 1-310): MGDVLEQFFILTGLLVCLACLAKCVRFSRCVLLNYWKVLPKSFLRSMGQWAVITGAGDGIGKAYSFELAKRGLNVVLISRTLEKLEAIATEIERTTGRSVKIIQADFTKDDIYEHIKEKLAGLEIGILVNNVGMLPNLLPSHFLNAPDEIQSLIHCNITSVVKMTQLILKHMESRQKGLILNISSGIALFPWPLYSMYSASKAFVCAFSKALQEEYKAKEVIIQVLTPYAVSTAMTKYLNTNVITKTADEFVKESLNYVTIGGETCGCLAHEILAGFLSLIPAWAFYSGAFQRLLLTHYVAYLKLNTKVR
Method: as §1, §2
17β-HSD3 inhibitory activities were measured in the presence of 190 nM unlabeled androstenedione and 10 nM radiolabeled androstenedione. Benzophenone-1 was used as positive control. The reaction mixtures were incubated for 30 min, and the reactions were stopped by adding an excess of androstenedione and testosterone (1:1, 2 mM in methanol). The steroids were separated by TLC, followed by scintillation counting and calculation of substrate concentration. Data was obtained from three independent measurements.

11β-HSD1 = biological target: T3, 11β-HSD1 (Homo sapiens, UniProt P28845); test: 11β-HSD1 activity in lysates of stably transfected cells; assay type: biochemical
T3 construct: expressed in transfected cells
T3 sequence (P28845 whole entry): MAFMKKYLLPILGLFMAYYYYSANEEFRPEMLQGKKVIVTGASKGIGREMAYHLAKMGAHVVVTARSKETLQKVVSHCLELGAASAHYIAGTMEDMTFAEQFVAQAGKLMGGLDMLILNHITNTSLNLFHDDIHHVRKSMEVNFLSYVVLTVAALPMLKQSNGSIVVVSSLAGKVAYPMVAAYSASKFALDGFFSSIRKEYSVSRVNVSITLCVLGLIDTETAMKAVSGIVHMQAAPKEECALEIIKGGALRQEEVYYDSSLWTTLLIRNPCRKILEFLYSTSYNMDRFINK
Method: The methods to determine 11β-HSD1 and -2 activity were performed as described previously.[64] Briefly, lysates of stably transfected cells, expressing either 11β-HSD1 or 11β-HSD2, were incubated for 10 min at 37 °C in TS2 buffer in a final volume of 22 μL containing either solvent (0.2% DMSO) or the inhibitor at the respective concentration. The nonselective 11β-HSD inhibitor glycyrrhetinic acid was used as positive control. Activity measurements of 11β-HSD1 were performed with 190 nM unlabeled cortisone, 10 nM radiolabeled cortisone, and 500 μM NADPH. To measure 11β-HSD2 activity, lysates were incubated with 40 nM unlabeled cortisol, 10 nM radiolabeled cortisol, and 500 μM NAD^+. Reactions were stopped after 10 min by adding an excess of unlabeled cortisone and cortisol (1:1, 2 mM in methanol). The steroids were separated by TLC, followed by scintillation counting and calculation of substrate concentration. Data were collected from at least three independent measurements.

17β-HSD1 = biological target: T4, 17β-HSD1 (Homo sapiens, UniProt P14061); test: 17β-HSD1 activity in HEK-293 cell lysates; assay type: biochemical; details: ratio of IC50 values
T4 construct: expressed in transfected cells; host or cells: HEK-293 (transient, calcium phosphate), lysate
T4 sequence (P14061 1-328): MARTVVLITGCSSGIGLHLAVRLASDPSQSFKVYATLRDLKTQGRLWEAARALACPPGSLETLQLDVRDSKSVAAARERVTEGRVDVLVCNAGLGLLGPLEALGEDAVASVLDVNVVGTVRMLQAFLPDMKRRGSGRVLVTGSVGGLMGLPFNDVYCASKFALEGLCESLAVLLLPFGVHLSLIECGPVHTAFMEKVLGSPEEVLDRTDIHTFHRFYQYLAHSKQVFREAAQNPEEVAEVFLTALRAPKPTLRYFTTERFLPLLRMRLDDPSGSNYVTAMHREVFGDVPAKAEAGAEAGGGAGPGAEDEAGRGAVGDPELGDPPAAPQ
Method: HEK-293 cells were transfected by the calcium phosphate precipitation method with plasmids for human 17β-HSD1, 17β-HSD2, or 11β-HSD2. Cells were cultivated for 48 h, washed with phosphate-buffered saline, and centrifuged for 4 min at 150g. After removal of the supernatants, cell pellets were snap frozen in dry ice and stored at −80 °C until further use.
Lysates of human embryonic kidney cells (HEK-293) expressing either 17β-HSD1 or 17β-HSD2 were incubated for 10 min at 37 °C in TS2 buffer in a final volume of 22 μL containing either solvent (0.2% DMSO/chloroform) or the inhibitor at the respective concentration. N-(3-Methoxyphenyl)-N-methyl-5-m-tolylthiophene-2-carboxamide (compound 19 in ref ([26])) and apigenin[50] were used as positive controls for 17β-HSD1 and 17β-HSD2, respectively, in all experiments. 17β-HSD1 activity was measured in the presence of 190 nM unlabeled estrone, 10 nM radiolabeled estrone, and 500 μM NADPH. In contrast, 17β-HSD2 activity was determined in the presence of 190 nM unlabeled estradiol, 10 nM radiolabeled estradiol, and 500 μM NAD^+. Reactions were stopped after 10 min by adding an excess of unlabeled estradiol and estrone (1:1, 2 mM in methanol). Possible promiscuous enzyme inhibition by aggregate formation of the chemicals was excluded by measuring the inhibition of the enzyme activity by the compounds in the presence of 0.1% Triton X-100.[36] […]

selectivity 17β-HSD3 against 17β-HSD2 (17β-HSD3; ratio of IC50 values): 35 fold | selectivity 11β-HSD1 against 17β-HSD2 (11β-HSD1; ratio of IC50 values): 9 fold
SMILES: CC(C)(C)c1ccc(S(=O)(=O)Oc2ccccc2O)cc1 [Compound 12]
17β-HSD2 inhibition in intact cells (in words) (17β-HSD2): concentration-dependently inhibited 17β-HSD2

17β-HSD3 inhibition (in words) (17β-HSD3; intact cells): weak 17β-HSD3 inhibitors | selectivity: more active toward 17β-HSD2 than 17β-HSD1 (17β-HSD1): 18 fold
SMILES: Cc1cc(S(=O)(=O)Nc2cccc(O)c2)c(C)cc1Cl [Compound 22]

17β-HSD3 intact inhibition class (n.i.) (17β-HSD3; rest activity at 20 μM, Table 3): n.i
SMILES: COc1ccc(S(=O)(=O)Nc2cccc(O)c2)c2c1CCCC2 [Compound 23]
11β-HSD1 versus 17β-HSD2 potency (in words) (11β-HSD1; lysates): almost equipotent toward 17β-HSD2 and 11β-HSD1; also recorded: equipotent 17β-HSD2 and 11β-HSD1 inhibitors
